ChEMBL document CHEMBL4837183, “Antiproliferative Bufadienolides from the Bulbs of Drimia altissima” (2021)

Tests used:
Type in all cases: functional
SF-268 = assay: Growth inhibition of human SF-268 cells measured after 48 hrs by SRB assay
SF-295 = assay: Growth inhibition of human SF-295 cells measured after 48 hrs by SRB assay
SF-539 = assay: Growth inhibition of human SF-539 cells measured after 48 hrs by SRB assay
SNB-19 = assay: Growth inhibition of human SNB-19 cells measured after 48 hrs by SRB assay
SNB-75 = assay: Growth inhibition of human SNB-75 cells measured after 48 hrs by SRB assay
U-251 = assay: Growth inhibition of human U-251 cells measured after 48 hrs by SRB assay
A549 = assay: Growth inhibition of human A549 cells measured after 48 hrs by SRB assay
HOP-62 = assay: Growth inhibition of human HOP-62 cells measured after 48 hrs by SRB assay
HOP-92 = assay: Growth inhibition of human HOP-92 cells measured after 48 hrs by SRB assay
NCI-H226 = assay: Growth inhibition of human NCI-H226 cells measured after 48 hrs by SRB assay
NCI-H23 = assay: Growth inhibition of human NCI-H23 cells measured after 48 hrs by SRB assay
NCI-H322M = assay: Growth inhibition of human NCI-H322M cells measured after 48 hrs by SRB assay
NCI-H460 = assay: Growth inhibition of human NCI-H460 cells measured after 48 hrs by SRB assay
NCI-H522 = assay: Growth inhibition of human NCI-H522 cells measured after 48 hrs by SRB assay
PC-3 = assay: Growth inhibition of human PC-3 cells measured after 48 hrs by SRB assay
DU-145 = assay: Growth inhibition of human DU-145 cells measured after 48 hrs by SRB assay
IGROV-1 = assay: Growth inhibition of human IGROV-1 cells measured after 48 hrs by SRB assay
OVCAR-3 = assay: Growth inhibition of human OVCAR-3 cells measured after 48 hrs by SRB assay
OVCAR-5 = assay: Growth inhibition of human OVCAR-5 cells measured after 48 hrs by SRB assay
OVCAR-8 = assay: Growth inhibition of human OVCAR-8 cells measured after 48 hrs by SRB assay
NCI/ADR-RES = assay: Growth inhibition of human NCI/ADR-RES cells measured after 48 hrs by SRB assay
SK-OV-3 = assay: Growth inhibition of human SK-OV-3 cells measured after 48 hrs by SRB assay
786-0 = assay: Growth inhibition of human 786-0 cells measured after 48 hrs by SRB assay
A498 = assay: Growth inhibition of human A498 cells measured after 48 hrs by SRB assay
ACHN = assay: Growth inhibition of human ACHN cells measured after 48 hrs by SRB assay
CAKI-1 = assay: Growth inhibition of human CAKI-1 cells measured after 48 hrs by SRB assay
RXF 393 = assay: Growth inhibition of human RXF 393 cells measured after 48 hrs by SRB assay
SN12C = assay: Growth inhibition of human SN12C cells measured after 48 hrs by SRB assay
TK-10 = assay: Growth inhibition of human TK-10 cells measured after 48 hrs by SRB assay
UO-31 = assay: Growth inhibition of human UO-31 cells measured after 48 hrs by SRB assay
CCRF-CEM = assay: Growth inhibition of human CCRF-CEM cells measured after 48 hrs by SRB assay
HL-60 = assay: Growth inhibition of human HL-60 cells measured after 48 hrs by SRB assay
K562 = assay: Growth inhibition of human K562 cells measured after 48 hrs by SRB assay
MOLT-4 = assay: Growth inhibition of human MOLT-4 cells measured after 48 hrs by SRB assay
SR = assay: Growth inhibition of human SR cells measured after 48 hrs by SRB assay
COLO 205 = assay: Growth inhibition of human COLO 205 cells measured after 48 hrs by SRB assay
HCC 2998 = assay: Growth inhibition of human HCC 2998 cells measured after 48 hrs by SRB assay
HCT-116 = assay: Growth inhibition of human HCT-116 cells measured after 48 hrs by SRB assay
HCT-15 = assay: Growth inhibition of human HCT-15 cells measured after 48 hrs by SRB assay
HT-29 = assay: Growth inhibition of human HT-29 cells measured after 48 hrs by SRB assay
KM12 = assay: Growth inhibition of human KM12 cells measured after 48 hrs by SRB assay
SW-620 = assay: Growth inhibition of human SW-620 cells measured after 48 hrs by SRB assay
LOX IMVI = assay: Growth inhibition of human LOX IMVI cells measured after 48 hrs by SRB assay
Malme-3M = assay: Growth inhibition of human Malme-3M cells measured after 48 hrs by SRB assay
M14 = assay: Growth inhibition of human M14 cells measured after 48 hrs by SRB assay
MDA-MB-435 = assay: Growth inhibition of human MDA-MB-435 cells measured after 48 hrs by SRB assay
SK-MEL-2 = assay: Growth inhibition of human SK-MEL-2 cells measured after 48 hrs by SRB assay
SK-MEL-28 = assay: Growth inhibition of human SK-MEL-28 cells measured after 48 hrs by SRB assay
SK-MEL-5 = assay: Growth inhibition of human SK-MEL-5 cells measured after 48 hrs by SRB assay
UACC-257 = assay: Growth inhibition of human UACC-257 cells measured after 48 hrs by SRB assay
UACC-62 = assay: Growth inhibition of human UACC-62 cells measured after 48 hrs by SRB assay
MCF7 = assay: Growth inhibition of human MCF7 cells measured after 48 hrs by SRB assay
MDA-MB-231 = assay: Growth inhibition of human MDA-MB-231 cells measured after 48 hrs by SRB assay
Hs-578T = assay: Growth inhibition of human Hs-578T cells measured after 48 hrs by SRB assay
BT-549 = assay: Growth inhibition of human BT-549 cells measured after 48 hrs by SRB assay
T47D = assay: Growth inhibition of human T47D cells measured after 48 hrs by SRB assay
MDA-MB-468 = assay: Growth inhibition of human MDA-MB-468 cells measured after 48 hrs by SRB assay

SMILES: CCO[C@@H]1C=C2CC[C@@H]3[C@H]([C@@H](O)C[C@]4(C)[C@@H](c5ccc(=O)oc5)CC[C@]34O)[C@@]2(C)CC1
- GI50 (SF-268): 58 nM
- GI50 (SF-295): 61 nM
- GI50 (SF-539): 66 nM
- GI50 (SNB-19): 347 nM
- GI50 (SNB-75): 187 nM
- GI50 (U-251): 151 nM
- GI50 (A549): 40 nM
- GI50 (HOP-62): 56 nM
- GI50 (HOP-92): 153 nM
- GI50 (NCI-H226): 181 nM
- GI50 (NCI-H23): 86 nM
- GI50 (NCI-H322M): 121 nM
- GI50 (NCI-H460): 39 nM
- GI50 (NCI-H522): 35 nM
- GI50 (PC-3): 145 nM
- GI50 (DU-145): 52 nM
- GI50 (IGROV-1): 138 nM
- GI50 (OVCAR-3): 59 nM
- GI50 (OVCAR-5): 280 nM
- GI50 (OVCAR-8): 165 nM
- GI50 (NCI/ADR-RES): 91 nM
- GI50 (SK-OV-3): 338 nM
- GI50 (786-0): 71 nM
- GI50 (A498): 39 nM
- GI50 (ACHN): 37 nM
- GI50 (CAKI-1): 57 nM
- GI50 (RXF 393): 25 nM
- GI50 (SN12C): 46 nM
- GI50 (TK-10): 94 nM
- GI50 (UO-31): 54 nM
- GI50 (CCRF-CEM): 54 nM
- GI50 (HL-60): 120 nM
- GI50 (K562): 129 nM
- GI50 (MOLT-4): 42 nM
- GI50 (SR): 124 nM
- GI50 (COLO 205): 401 nM
- GI50 (HCC 2998): 537 nM
- GI50 (HCT-116): 39 nM
- GI50 (HCT-15): 86 nM
- GI50 (HT-29): 78 nM
- GI50 (KM12): 349 nM
- GI50 (SW-620): 63 nM
- GI50 (LOX IMVI): 137 nM
- GI50 (Malme-3M): 145 nM
- GI50 (M14): 232 nM
- GI50 (MDA-MB-435): 178 nM
- GI50 (SK-MEL-2): 234 nM
- GI50 (SK-MEL-28): 296 nM
- GI50 (SK-MEL-5): 72 nM
- GI50 (UACC-257): 268 nM
- GI50 (UACC-62): 145 nM
- GI50 (MCF7): 55 nM
- GI50 (MDA-MB-231): 588 nM
- GI50 (Hs-578T): 44 nM
- GI50 (BT-549): 56 nM
- GI50 (T47D): 255 nM
- GI50 (MDA-MB-468): 501 nM

SMILES: C[C@]12C[C@H](O)[C@H]3[C@@H](CCC4=C[C@@H](O[C@@H]5O[C@H](CO)[C@@H](O)[C@H](O)[C@H]5O)CC[C@@]43CO)[C@@]1(O)CC[C@@H]2c1ccc(=O)oc1
- GI50 (SF-268): 7 nM
- GI50 (SF-295): 11 nM
- GI50 (SF-539): 3 nM
- GI50 (SNB-19): 48 nM
- GI50 (SNB-75): 23 nM
- GI50 (U-251): 25 nM
- GI50 (A549): 4 nM
- GI50 (HOP-62): 6 nM
- GI50 (HOP-92): 22 nM
- GI50 (NCI-H226): 22 nM
- GI50 (NCI-H23): 8 nM
- GI50 (NCI-H322M): 7 nM
- GI50 (NCI-H460): 6 nM
- GI50 (NCI-H522): 6 nM
- GI50 (PC-3): 13 nM
- GI50 (DU-145): 6 nM
- GI50 (IGROV-1): 16 nM
- GI50 (OVCAR-3): 8 nM
- GI50 (OVCAR-5): 17 nM
- GI50 (OVCAR-8): 15 nM
- GI50 (NCI/ADR-RES): 8 nM
- GI50 (SK-OV-3): 51 nM
- GI50 (786-0): 7 nM
- GI50 (A498): 12 nM
- GI50 (ACHN): 5 nM
- GI50 (CAKI-1): 8 nM
- GI50 (RXF 393): 5 nM
- GI50 (SN12C): 6 nM
- GI50 (TK-10): 8 nM
- GI50 (UO-31): 9 nM
- GI50 (CCRF-CEM): 7 nM
- GI50 (HL-60): 7 nM
- GI50 (K562): 30 nM
- GI50 (MOLT-4): 7 nM
- GI50 (SR): 24 nM
- GI50 (COLO 205): 43 nM
- GI50 (HCC 2998): 52 nM
- GI50 (HCT-116): 5 nM
- GI50 (HCT-15): 17 nM
- GI50 (HT-29): 15 nM
- GI50 (KM12): 29 nM
- GI50 (SW-620): 17 nM
- GI50 (LOX IMVI): 18 nM
- GI50 (Malme-3M): 17 nM
- GI50 (M14): 31 nM
- GI50 (MDA-MB-435): 33 nM
- GI50 (SK-MEL-2): 45 nM
- GI50 (SK-MEL-28): 37 nM
- GI50 (SK-MEL-5): 20 nM
- GI50 (UACC-257): 42 nM
- GI50 (UACC-62): 25 nM
- GI50 (MCF7): 9 nM
- GI50 (MDA-MB-231): 53 nM
- GI50 (Hs-578T): 6 nM
- GI50 (BT-549): 4 nM
- GI50 (T47D): 24 nM
- GI50 (MDA-MB-468): 44 nM
